Assay results taken from US20090142369A1, “Method for preventing skin-cellular injury by using green algae extract and cosmetic composition containing green algae extract” (priority 2007, published 2009).

System: fibroblasts
Assay: protective effects on UV-induced cytotoxicity (fibroblast survival rates)
Type: cell-based, human
Experimental: Green algae extracts (20 mg/ml and 10 mg/ml), Vitamin C, and Vitamin E treated fibroblasts are taken as subjects of the present experiment. The fibroblast survival rates are analyzed after 24, 48 and 72 hours of UV exposure and the results are quantified in the histogram.

Molecule	fibroblast survival rate, as % of non-UV-exposed control (Vitamin C 0.15 mM, after 24 hours of UV exposure)	fibroblast survival rate, as % of non-UV-exposed control (Vitamin C 0.15 mM, after 48 hours of UV exposure)	fibroblast survival rate, as % of non-UV-exposed control (Vitamin C 0.15 mM, after 72 hours of UV exposure)	fibroblast survival rate, as % of non-UV-exposed control (Vitamin E 25 μM, after 24 hours of UV exposure)	fibroblast survival rate, as % of non-UV-exposed control (Vitamin E 25 μM, after 48 hours of UV exposure)	fibroblast survival rate, as % of non-UV-exposed control (Vitamin E 25 μM, after 72 hours of UV exposure)
O=C1O[C@H]([C@@H](O)CO)C(O)=C1O [Vitamin C]	about 53%	~29%	~22%			
Vitamin E				about 49%	~27%	~23%
